The target in one test is T1, 5-HT2CR (Homo sapiens, UniProt P28335).
T1 sequence (P28335 33-458): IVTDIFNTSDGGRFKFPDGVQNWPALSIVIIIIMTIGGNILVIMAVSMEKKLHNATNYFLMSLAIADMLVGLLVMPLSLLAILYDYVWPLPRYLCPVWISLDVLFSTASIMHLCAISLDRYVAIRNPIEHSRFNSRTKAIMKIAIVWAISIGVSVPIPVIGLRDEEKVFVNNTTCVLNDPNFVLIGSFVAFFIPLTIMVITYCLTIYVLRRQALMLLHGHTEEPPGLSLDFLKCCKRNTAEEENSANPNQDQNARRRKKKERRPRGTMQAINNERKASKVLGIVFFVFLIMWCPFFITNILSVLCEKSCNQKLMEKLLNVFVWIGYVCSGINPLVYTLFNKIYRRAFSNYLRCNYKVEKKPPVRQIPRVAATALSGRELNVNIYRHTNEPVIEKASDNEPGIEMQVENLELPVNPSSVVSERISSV
Briefly: Radioligand binding assay at human 5-HT2CR ([125I]DOI, HEK cells). The note with it: HEK cells expressing h5-HT2CR, read-out: Ki ± SEM, 5-HT2CR. Also on record: expressed in transfected cells; host or cells: HEK (HEK-h5HT2C). Here is the method: Human embryonic kidney cells expressing human 5HT2AR (HEK-h5HT2A) or human 5HT2CR (HEK-h5HT2C) are used. The cells are grown until confluent on 15 cm plates. The medium is removed, and the cells are washed with phosphate-buffered saline (PBS), scraped into 2 mL PBS, and frozen at −20 °C until needed. Cell suspension is thawed, 10 mL assay buffer (50 mM Tris, pH 7.4 at 37 °C, with 0.1% ascorbic acid and 5 mM CaCl2) is added per plate of cells, and polytronned at setting 6 for 5 s. The homogenate is centrifuged at 15,500 rpm for 20 min. To minimize the residual 5HT concentration, the pellet is resuspended in buffer, polytronned, and centrifuged as mentioned above. The final pellet is resuspended in 2 mL buffer/plate of cells. The binding assay includes 50 μL drug, 5-HT or buffer, 50 μL cell homogenate, 50 μL [^125I]DOI (∼0.1 nM), and buffer in a final volume of 250 μL. Specific binding is defined as the difference between total binding and binding in the presence of 10 μM 5HT. The reaction is incubated for 1 h at 37 °C and terminated by filtration through Wallac A filter mats presoaked in 0.05% polyethylenimine using a Tomtec 96-well harvester. The radioactivity remaining on filters is determined using a Wallac betaplate reader.

Another test concerns the target T2, human D1R (Homo sapiens, UniProt P21728).
T2 construct: expressed in transfected cells; host or cells: mouse fibroblast cells (LhD1)
Briefly: Radioligand binding assay at human D1R ([3H]SCH23390, mouse fibroblast LhD1 cells). The note with it: [3H]SCH23390, mouse fibroblast cells expressing hD1R; read-out: Ki ± SEM, D1R. Here is the method:
Mouse fibroblast cells expressing the human D1R at high density (LhD1 cells) are used. The cells are grown to confluence in DMEM containing 10% FetalClone1 serum (FCS, HyClone), 0.05% penicillin–streptomycin (pen-strep), and 400 μg/mL of Geneticin (G418). Three confluent 150 mm plates yield enough membranes for three assay plates with ∼10–15 μg protein per well. The cells from three 150 mm plates are scraped and centrifuged at 500×g for 5 min. The pellet is overlaid with 2 mL assay buffer (50 mM Tris–HCl containing 120 mM NaCl, 5 mM KCl, 2 mM CaCl2, and 1 mM MgCl2) and frozen at −70 °C. On the day of experiment, the pellet is homogenized in 30 mL assay buffer with a polytron. Cell homogenate (100 μL) is added to wells containing 800 μL of test drug or buffer. After a 10 min preincubation, 100 μL of [^3H]SCH-23390 (0.18 nM final concentration) is added. The plates are incubated at 25 C for 60 min. The reaction is terminated by filtration using a Tomtec 96 well harvester, and the radioactivity on the filters is determined using a PerkinElmer microbeta scintillation counter. Nonspecific binding is determined with 1 μM SCH-23390.

The record followed here is publication PMC8498988, “Scaffold Hybridization Strategy Leads to the Discovery of Dopamine D3 Receptor-Selective or Multitarget Bitopic Ligands Potentially Useful for Central Nervous System Disorders” (ACS Chemical Neuroscience, 2021).

By Ki is commonly meant a measure of affinity in units of concentration, obtained from inhibition or displacement.

T2 sequence (P21728 whole entry): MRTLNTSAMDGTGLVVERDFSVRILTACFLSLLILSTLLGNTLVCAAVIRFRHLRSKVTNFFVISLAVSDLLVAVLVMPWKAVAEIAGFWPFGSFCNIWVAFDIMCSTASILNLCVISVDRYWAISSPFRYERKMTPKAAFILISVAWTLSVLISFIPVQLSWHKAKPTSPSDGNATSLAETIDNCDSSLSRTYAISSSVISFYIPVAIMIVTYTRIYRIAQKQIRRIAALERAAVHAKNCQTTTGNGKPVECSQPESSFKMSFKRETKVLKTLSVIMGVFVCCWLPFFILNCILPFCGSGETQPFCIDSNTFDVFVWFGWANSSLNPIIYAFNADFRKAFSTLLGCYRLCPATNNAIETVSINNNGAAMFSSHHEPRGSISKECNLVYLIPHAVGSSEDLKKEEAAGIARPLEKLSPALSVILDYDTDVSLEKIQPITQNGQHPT

For the compound `O=C(NCCCCN1CCN(c2cccc(Cl)c2Cl)CC1)C1COCC(c2ccccc2)(c2ccccc2)O1` (stereo not drawn) [compound 3, N-(4-(4-(2,3-Dichlorophenyl)piperazin-1-yl)butyl)-6,6-diphenyl-1,4-dioxane-2-carboxamide], the Ki at 5-HT2CR stood at 642 ± 80 nM; on human D1R, 442 ± 52 nM.
`O=C(NCCCCN1CCN(c2cccc(Cl)c2Cl)CC1)C1COC(c2ccccc2)(c2ccccc2)CO1` (stereo not drawn) [compound 6, N-(4-(4-(2,3-Dichlorophenyl)piperazin-1-yl)butyl)-5,5-diphenyl-1,4-dioxane-2-carboxamide]: the Ki on 5-HT2CR came out at 90 ± 16 nM; at human D1R, 700 ± 150 nM.
In the case of `O=C(NCCCCN1CCN(c2cccc(Cl)c2Cl)CC1)C1COc2ccccc2O1` (stereo not drawn) [compound 9, N-(4-(4-(2,3-Dichlorophenyl)piperazin-1-yl)butyl)-2,3-dihydrobenzo[b][1,4]dioxine-2-carboxamide], the Ki on 5-HT2CR was 97 ± 25 nM; at human D1R it was 680 ± 160 nM.
